Literature values in patent US11512314B2, “Amphiphilic polynucleotides” (Duke University, priority 2019, dated 2022).
Like-named read-outs stand apart in the source and are kept apart here.

How the values were obtained:
[1] = target: prostate-specific membrane antigen (PSMA) (Homo sapiens, UniProt Q04609); conditions: binding to PSMA
[2] = free 5FU, reported value
[3] = small molecule drug

Chain of prostate-specific membrane antigen (PSMA) (Q04609 whole entry): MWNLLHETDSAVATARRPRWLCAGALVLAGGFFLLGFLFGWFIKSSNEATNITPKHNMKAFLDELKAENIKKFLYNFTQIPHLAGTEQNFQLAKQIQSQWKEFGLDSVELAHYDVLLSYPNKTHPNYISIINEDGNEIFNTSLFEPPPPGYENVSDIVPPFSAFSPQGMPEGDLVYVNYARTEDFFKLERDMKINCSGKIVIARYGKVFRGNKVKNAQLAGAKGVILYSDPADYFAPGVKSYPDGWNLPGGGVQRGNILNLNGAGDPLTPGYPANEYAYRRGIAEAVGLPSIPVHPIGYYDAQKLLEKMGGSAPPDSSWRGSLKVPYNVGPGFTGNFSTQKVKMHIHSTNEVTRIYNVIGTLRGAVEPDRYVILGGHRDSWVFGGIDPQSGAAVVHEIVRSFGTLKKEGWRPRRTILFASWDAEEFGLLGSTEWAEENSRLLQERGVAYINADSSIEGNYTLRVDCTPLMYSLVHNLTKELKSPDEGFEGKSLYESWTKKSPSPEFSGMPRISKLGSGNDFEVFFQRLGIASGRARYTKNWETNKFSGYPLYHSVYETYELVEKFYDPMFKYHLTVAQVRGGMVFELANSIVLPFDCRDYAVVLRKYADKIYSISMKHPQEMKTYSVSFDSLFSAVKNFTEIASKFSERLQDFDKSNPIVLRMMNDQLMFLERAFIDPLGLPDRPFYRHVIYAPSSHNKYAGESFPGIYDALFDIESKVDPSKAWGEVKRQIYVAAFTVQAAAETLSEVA

| Compound | Kd [1] [nM] | reported MTD [2] [mg/kg] | reported MTD ([2]; listed as 5-FU) [mg/kg] | half-life [3] [min] |
| --- | --- | --- | --- | --- |
| 5′-GGGAGGACGAUGCGGAUCAGCCAUGUUUACGUCACUCCU-3′ (listed as RNA, chemistry not given here) [A10] | 2.1 |  |  |  |
| O=c1[nH]cc(F)c(=O)[nH]1 [5FU] |  | 15 to 20 | 20 | 8 to 14 |
